This note sets out measurements from ChEMBL document CHEMBL1148465, “Carbonic anhydrase inhibitors: the first selective, membrane-impermeant inhibitors targeting the tumor-associated isozyme IX” (Bioorg Med Chem Lett, 2004).

Targets include Carbonic anhydrase 9 (Homo sapiens, UniProt Q16790); Carbonic anhydrase 1 (Homo sapiens, UniProt P00915); Carbonic anhydrase 2 (Homo sapiens, UniProt P00918).
The next assay addresses T1, Carbonic anhydrase 4 (Bos taurus, UniProt Q95323).
T1 sequence (Q95323 whole entry): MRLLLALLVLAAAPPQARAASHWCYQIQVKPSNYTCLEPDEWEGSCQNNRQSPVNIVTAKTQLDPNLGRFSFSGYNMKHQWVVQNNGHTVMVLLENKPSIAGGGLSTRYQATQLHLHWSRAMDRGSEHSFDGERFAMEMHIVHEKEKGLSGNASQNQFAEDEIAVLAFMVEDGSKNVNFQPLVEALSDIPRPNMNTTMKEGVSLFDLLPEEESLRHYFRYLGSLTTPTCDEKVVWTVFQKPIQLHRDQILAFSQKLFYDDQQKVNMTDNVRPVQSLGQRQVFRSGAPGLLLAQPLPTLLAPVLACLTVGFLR

Each structure is given as a SMILES string. Bounds are passed on as bounds.

Chain of Carbonic anhydrase 1 (P00915 whole entry): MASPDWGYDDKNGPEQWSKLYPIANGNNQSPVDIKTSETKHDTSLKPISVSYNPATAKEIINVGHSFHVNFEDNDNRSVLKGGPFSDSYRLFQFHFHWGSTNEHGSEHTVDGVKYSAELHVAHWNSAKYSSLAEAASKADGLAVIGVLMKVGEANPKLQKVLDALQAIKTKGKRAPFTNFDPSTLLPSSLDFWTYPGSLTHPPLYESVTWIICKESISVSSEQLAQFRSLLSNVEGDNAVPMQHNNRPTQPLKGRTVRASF
Description for Carbonic anhydrase 1: Inhibitory activity against human carbonic anhydrase I
Description for Carbonic anhydrase 2: Inhibitory activity against human carbonic anhydrase II
Description for Carbonic anhydrase 4: Inhibitory activity against carbonic anhydrase IV from bovine lung microsomes
Description for Carbonic anhydrase 9: Inhibitory activity against human carbonic anhydrase IX

Regarding `CC(C)(C)c1cc(-c2ccccc2)cc(-c2ccccc2)[n+]1Cc1ccc(S(N)(=O)=O)cc1`, the Ki (in general, the dissociation constant of the complex between target and ligand, obtained from inhibition or displacement) at Carbonic anhydrase 9 was over 0.5 µM. As to `NS(=O)(=O)c1ccc(C[n+]2c(-c3ccccc3)cccc2-c2ccccc2)cc1`, the Ki at Carbonic anhydrase 4 was 1.95 µM; at Carbonic anhydrase 1 it was 280 µM. On to `CCCc1cc(-c2ccccc2)cc(CCC)[n+]1CCc1ccc(S(N)(=O)=O)cc1`, for which the affinity at Carbonic anhydrase 1, expressed as Ki, was 7 µM. On to `Cc1cc(-c2ccccc2)cc(C)[n+]1Cc1ccc(S(N)(=O)=O)cc1`, for which the Ki was 0.07 µM at Carbonic anhydrase 4 and 4 µM at Carbonic anhydrase 1. `CC(C)c1cc(-c2ccccc2)cc(-c2ccccc2)[n+]1Cc1ccc(S(N)(=O)=O)cc1` returned a Ki at Carbonic anhydrase 1 of 112 µM. Turning to `CCc1cc(-c2ccccc2)cc(CC)[n+]1Cc1ccc(S(N)(=O)=O)cc1`, the inhibitory constant (Ki) on Carbonic anhydrase 1 worked out at 2 µM; at Carbonic anhydrase 2 it was 0.021 µM. On to `Cc1cc(C(C)C)[n+](CCc2ccc(S(N)(=O)=O)cc2)c(C(C)C)c1`, for which the Ki on Carbonic anhydrase 4 came out at 0.07 µM; at Carbonic anhydrase 1, 3 µM; on Carbonic anhydrase 2 it was 0.02 µM.

As for `CCc1cc(-c2ccccc2)cc(-c2ccccc2)[n+]1CCc1ccc(S(N)(=O)=O)cc1`, at Carbonic anhydrase 1, the Ki came to 40 µM.

At Carbonic anhydrase 1, `Cc1cc(C)[n+](CCc2ccc(S(N)(=O)=O)cc2)c(C(C)C)c1` returned a Ki of 2 µM.

In the case of `CCCc1cc(-c2ccccc2)cc(-c2ccccc2)[n+]1CCc1ccc(S(N)(=O)=O)cc1`, at Carbonic anhydrase 1, the affinity corresponds to a Ki of 112 µM. Take `CCCCc1cc(-c2ccccc2)cc(-c2ccccc2)[n+]1Cc1ccc(S(N)(=O)=O)cc1`: the Ki on Carbonic anhydrase 4 came out at 2.1 µM; on Carbonic anhydrase 9, 0.135 µM; at Carbonic anhydrase 1, 300 µM; at Carbonic anhydrase 2, 0.595 µM. `Cc1cc(C)[n+](-c2ccc(S(N)(=O)=O)cc2)c(C)c1` had a Ki at Carbonic anhydrase 1 of 10 µM. As for `CC(C)c1cc(-c2ccccc2)cc(-c2ccccc2)[n+]1-c1ccc(S(N)(=O)=O)cc1`, the Ki on Carbonic anhydrase 4 is 2.1 µM; on Carbonic anhydrase 9, over 0.5 µM. As to `Cc1cc(-c2ccccc2)cc(-c2ccccc2)[n+]1-c1ccc(S(N)(=O)=O)cc1`, the Ki at Carbonic anhydrase 1 was determined as 40 µM.

As for `Cc1cc(C)[n+](CCc2ccc(S(N)(=O)=O)cc2)c(C)c1C`, the Ki is 0.021 µM at Carbonic anhydrase 4, 0.008 µM on Carbonic anhydrase 9 and 2 µM at Carbonic anhydrase 1. The compound `Cc1cc(C)[n+](-c2ccc(S(N)(=O)=O)cc2)c(C)c1C` gave a Ki at Carbonic anhydrase 1 of 5 µM. For the compound `Cc1cc(C)[n+](Cc2ccc(S(N)(=O)=O)cc2)c(C)c1`, the Ki at Carbonic anhydrase 1 is 7 µM; on Carbonic anhydrase 2, 0.05 µM. With `Cc1cc(C)[n+](Cc2ccc(S(N)(=O)=O)cc2)c(C)c1C`, the affinity on Carbonic anhydrase 1 corresponds to a Ki of 3 µM. `CC(C)(C)c1cc(-c2ccccc2)cc(-c2ccccc2)[n+]1CCc1ccc(S(N)(=O)=O)cc1` displayed an inhibitory constant (Ki) on Carbonic anhydrase 9 of over 0.5 µM. As for `NS(=O)(=O)c1ccc(-[n+]2c(-c3ccccc3)cc(-c3ccccc3)cc2-c2ccccc2)cc1`, the Ki was over 0.5 µM on Carbonic anhydrase 9 and 290 µM on Carbonic anhydrase 1. Regarding `Cc1cc(-c2ccccc2)cc(C)[n+]1-c1ccc(S(N)(=O)=O)cc1`, the Ki on Carbonic anhydrase 1 came to 7 µM; at Carbonic anhydrase 2 it was 0.06 µM.

On to `CCc1cc(-c2ccccc2)cc(CC)[n+]1CCc1ccc(S(N)(=O)=O)cc1`, for which the Ki came out at 0.021 µM at Carbonic anhydrase 4, 0.008 µM at Carbonic anhydrase 9 and 1 µM at Carbonic anhydrase 1.

`CCCc1cc(-c2ccccc2)cc(-c2ccccc2)[n+]1-c1ccc(S(N)(=O)=O)cc1` came in with a Ki on Carbonic anhydrase 9 of over 0.5 µM. At Carbonic anhydrase 1, `CCCc1cc(-c2ccccc2)cc(CCC)[n+]1-c1ccc(S(N)(=O)=O)cc1` showed a Ki of 10 µM. Turning to `CCc1cc(-c2ccccc2)cc(-c2ccccc2)[n+]1Cc1ccc(S(N)(=O)=O)cc1`, the Ki is 0.983 µM on Carbonic anhydrase 4, 0.079 µM on Carbonic anhydrase 9, 42 µM on Carbonic anhydrase 1 and 0.314 µM on Carbonic anhydrase 2.

Regarding `Cc1cc(-c2ccccc2)cc(C)[n+]1CCc1ccc(S(N)(=O)=O)cc1`, the affinity at Carbonic anhydrase 1, expressed as Ki, was 1 µM.

For `Cc1cc(C)[n+](Cc2ccc(S(N)(=O)=O)cc2)c(C(C)C)c1`, the Ki at Carbonic anhydrase 1 stood at 6 µM; on Carbonic anhydrase 2, 0.05 µM. In the case of `Cc1cc(C(C)C)[n+](Cc2ccc(S(N)(=O)=O)cc2)c(C(C)C)c1`, the Ki on Carbonic anhydrase 4 came to 0.144 µM. Regarding `NS(=O)(=O)c1ccc(C[n+]2c(-c3ccccc3)cc(-c3ccccc3)cc2-c2ccccc2)cc1`, the Ki turned out to be 1.96 µM at Carbonic anhydrase 4, 0.12 µM on Carbonic anhydrase 9 and 280 µM on Carbonic anhydrase 1. As to `CC(C)c1cc(-c2ccccc2)cc(C(C)C)[n+]1CCc1ccc(S(N)(=O)=O)cc1`, the values for the inhibition constant (Ki) at Carbonic anhydrase 1 and at Carbonic anhydrase 2 were 6 µM and 0.021 µM, respectively. With `CCCCc1cc(-c2ccccc2)cc(-c2ccccc2)[n+]1CCc1ccc(S(N)(=O)=O)cc1`, the inhibition constant Ki turned out to be 0.12 µM on Carbonic anhydrase 9 and 290 µM on Carbonic anhydrase 1. As to `CC(C)c1cc(-c2ccccc2)cc(C(C)C)[n+]1-c1ccc(S(N)(=O)=O)cc1`, the Ki at Carbonic anhydrase 1 is 5 µM. On to `CCc1cc(-c2ccccc2)cc(CC)[n+]1-c1ccc(S(N)(=O)=O)cc1`, for which the Ki at Carbonic anhydrase 1 was 6 µM; on Carbonic anhydrase 2, 0.06 µM. Consider `CCCCc1cc(-c2ccccc2)cc(-c2ccccc2)[n+]1-c1ccc(S(N)(=O)=O)cc1`, for which the Ki at Carbonic anhydrase 9 is over 0.5 µM.
